Some results are limits rather than exact numbers.

16 compounds from ChEMBL document CHEMBL1139020, “Aryl O- and S-galactosides and lactosides as specific inhibitors of human galectins-1 and -3: role of electrostatic potential at O-3” (Bioorg Med Chem Lett, 2006) can be followed below.

Test [1] deals with Galectin-1 (Homo sapiens) (UniProt P09382). In words: Inhibition of Galectin1.
The target of test [2] is Galectin-3 (Homo sapiens) (UniProt P17931). Nature of the test: Inhibition of Galectin3.
Chain of Galectin-3 (Homo sapiens) (P17931 whole entry): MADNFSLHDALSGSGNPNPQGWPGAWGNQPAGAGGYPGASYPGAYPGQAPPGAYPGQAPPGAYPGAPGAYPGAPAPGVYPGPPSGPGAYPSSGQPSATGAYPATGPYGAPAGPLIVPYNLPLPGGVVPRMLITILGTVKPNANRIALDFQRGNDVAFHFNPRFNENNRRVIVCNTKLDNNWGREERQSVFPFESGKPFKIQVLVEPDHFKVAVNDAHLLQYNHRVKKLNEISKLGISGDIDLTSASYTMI

Chain of Galectin-1 (Homo sapiens) (P09382 whole entry): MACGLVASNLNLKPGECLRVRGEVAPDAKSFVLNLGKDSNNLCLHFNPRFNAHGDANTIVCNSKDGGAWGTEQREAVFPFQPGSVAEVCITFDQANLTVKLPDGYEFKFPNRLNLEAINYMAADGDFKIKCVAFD

Regarding `CC(=O)OC[C@H]1O[C@@H](Sc2ccc([N+](=O)[O-])cc2)[C@H](OC(C)=O)[C@@H](OC(C)=O)[C@@H]1O[C@@H]1O[C@H](CO)[C@H](O)[C@H](O)[C@H]1O`, the Activity in test [1] and in test [2] was 0.313 mM in each case.
As for `CC(=O)OC[C@H]1O[C@@H](Oc2ccc([N+](=O)[O-])cc2)[C@H](OC(C)=O)[C@@H](OC(C)=O)[C@@H]1O[C@@H]1O[C@H](CO)[C@H](O)[C@H](O)[C@H]1O`, the results for the Activity in test [1] and in test [2] were 0.313 mM and 0.625 mM, respectively.
As to `O=C[C@H](O)[C@@H](O)[C@@H](O)[C@H](O)CO`, the Activity in test [1] and in test [2] was 50 mM throughout.
For the compound `COc1ccc(S[C@@H]2O[C@H](COC(C)=O)[C@@H](O[C@@H]3O[C@H](CO)[C@H](O)[C@H](O)[C@H]3O)[C@H](OC(C)=O)[C@H]2OC(C)=O)cc1`, the Activity in test [1] and in test [2] was 0.313 mM in each case.
As for `CC(=O)OC[C@H]1O[C@@H](Oc2ccccc2[N+](=O)[O-])[C@H](OC(C)=O)[C@@H](OC(C)=O)[C@@H]1O[C@@H]1O[C@H](CO)[C@H](O)[C@H](O)[C@H]1O`, the values for the Activity in test [1] and in test [2] were 0.08 mM and 0.625 mM, respectively.
For the compound LACTOSE, ANHYDROUS, the Activity in test [1] and in test [2] was 0.8 mM each time.
Regarding `CC(=O)OC[C@H]1O[C@@H](Oc2ccccc2[N+](=O)[O-])[C@H](OC(C)=O)[C@@H](OC(C)=O)[C@H]1O`, the Activity in test [1] and in test [2] was above 5 mM throughout.
Regarding `COc1ccc(S(=O)(=O)[C@@H]2O[C@H](CO)[C@H](O)[C@H](O)[C@H]2O)cc1`, the Activity in test [1] and in test [2] was above 5 mM in each case.
For `CC(=O)OC[C@H]1O[C@@H](Sc2ccc3ccccc3c2)[C@H](OC(C)=O)[C@@H](OC(C)=O)[C@@H]1O[C@@H]1O[C@H](CO)[C@H](O)[C@H](O)[C@H]1O`, the Activity in test [1] and in test [2] was 0.313 mM throughout.
For `CC(=O)OC[C@H]1O[C@@H](Oc2ccc([N+](=O)[O-])cc2)[C@H](OC(C)=O)[C@@H](OC(C)=O)[C@H]1O`, the Activity in test [1] and in test [2] was 10 mM throughout.
As for `CC(=O)OC[C@H]1O[C@@H](Sc2ccc(Br)cc2)[C@H](OC(C)=O)[C@@H](OC(C)=O)[C@@H]1O[C@@H]1O[C@H](CO)[C@H](O)[C@H](O)[C@H]1O`, the Activity in test [1] and in test [2] was 0.313 mM throughout.
For `CC(=O)OC[C@H]1O[C@@H](Sc2ccc([N+](=O)[O-])cc2)[C@H](OC(C)=O)[C@@H](OC(C)=O)[C@H]1O`, the Activity in test [1] was 2.5 mM; in test [2], above 5 mM.
On to `O=S(=O)(c1ccc(Br)cc1)[C@@H]1O[C@H](CO)[C@@H](O[C@@H]2O[C@H](CO)[C@H](O)[C@H](O)[C@H]2O)[C@H](O)[C@H]1O`, for which the Activity in test [1] and in test [2] was 0.313 mM throughout.
With `COc1ccc(S[C@@H]2O[C@H](COC(C)=O)[C@H](O)[C@H](OC(C)=O)[C@H]2OC(C)=O)cc1`, the Activity in test [1] was above 5 mM; in test [2] it was 2.5 mM.
In the same order, the values of `O=S(=O)(c1ccc2ccccc2c1)[C@@H]1O[C@H](CO)[C@@H](O[C@@H]2O[C@H](CO)[C@H](O)[C@H](O)[C@H]2O)[C@H](O)[C@H]1O` are 0.04 mM and 0.313 mM.
On the same counts, the results for `CC(=O)OC[C@H]1O[C@@H](Sc2ccc3ccccc3c2)[C@H](OC(C)=O)[C@@H](OC(C)=O)[C@H]1O` are 5 mM and 5 mM.
